# Patent publication US20230145342A1, “COMBINATORY TREATMENT” (AALTO UNIVERSITY FOUNDATION SR, priority 2020, published 2023)
# Entries after “also recorded” stand apart in the source; their conditions may differ.
# Assays:
# [1] = Analytical ultracentrifuge sedimentation velocity analysis of P[5]a with LPS; type: binding, Pseudomonas aeruginosa; conditions: 135 μM P[5]a and 35 μM LPS, UV absorbance at 305 nm
# Protocol: A clear initial peak of unbound P[5]a can be observer at low molecular weight (2260 Da), followed by a long and polydisperse collection of peaks, ranging from low molecular weight (S), to very high molecular weight (60.000 kDa) See Example 6.
# The interaction of P[5]a with lipopolysaccharides of P. aeruginosa, strain PA10 was measured using AUC.
# Analytical ultracentrifugation (AUC) is based on sedimentation of colloidal particles in a centrifugal field. During centrifugation particles move toward the bottom of the measuring cell. This movement leads to redistribution of particles along the measuring cell, which in turn can be expressed as a change in concentration along the measuring cell. The absorbance detector was used to follow the changes caused by centrifugation (absorbance is proportional to concentration). In simple words, in AUC the inventors measure how concentration changes during centrifugation, so they collect concentration profiles. Interaction between particles can be measured as a result of changes in the sedimentation profiles. […]
# The spectra of both P[5]a and LPS from P. aeruginosa were first analysed separately (see FIG. 12 a and b). […] Because only the sedimentation of P[5]a was detected at 305 nm, the inventors were certain that any changes observed in the sedimentation profile, come from interactions between P[5]a and other particles. […]
# [2] = tested on: Pserudomonas aeruginosa, strain PA01; experiment: Biofilm formation; type: cell-based, Pseudomonas aeruginosa; conditions: P[5]a in high concentrations
# Protocol: The effect of P[5]a on the formation of biofilm by a pathogenic Gram-negative bacterium, Pserudomonas aeruginosa, strain PA01 was measured.
# Biofilm is, alongside pyocyanin production, an important indicator of virulence in P. aeruginosa.
# [3] = tested on: resistant P. aeruginosa strains PA 5550, PA 5842, PA 5827, PA 5832, PA 5834 and PA 5539; experiment: MIC of four antibiotics in presence or absence of P[5]a, Mueller broth; type: cell-based, Pseudomonas aeruginosa; conditions: six resistant strains, presence vs absence of P[5]a
# Source text: (§1) In FIG. 4 with P. aeruginosa strain PA 5834, P[5]a made the bacterium classify as “susceptible” again, whereas without P[5]a it was fully “resistant” to the antibiotics ceftazidime and cefepime (even growing in the highest concentration we tested). This could have major implications, because there have been many encounters already of “Pan-Drug resistant bacteria” bacteria that are classified as “resistant” to all known antibiotics. They are basically untreatable by current standards. P[5]a Virulence inhibitors, might make those bacteria susceptible again for treatment. In FIG. 5 with P. aeruginosa strain PA 5539, the overall resistance profile of the bacterium was much lower. […] Further testing was done on six resistant P. aeruginosa strains from the Helsinki hospital collection, PA 5550, PA 5842, PA 5827, PA 5832, PA 5834 and PA 5539 with four different antibiotics (amikacin, cefepime, ceftazidime and meropenem).
# [4] = tested on: multidrug resistant P. aeruginosa strain PA 5539; experiment: MIC of antibiotics without and with P[5]a, Luria broth (sensitizing effect test); type: cell-based, Pseudomonas aeruginosa; conditions: with vs without P[5]a
# Protocol: (§2) Values in blue, yellow and orange indicate the bacterium is categorized as “susceptible”, “intermediate susceptible” and “resistant”, respectively, according to the “Performance Standards for Antimicrobial Susceptibility Testing”, which is maintained by the Clinical and Laboratory Standards Institute.
# (§3) So, it was tested whether P[5]a could sensitize (increase the efficacy of) already resistant P. aeruginosa strains PA 5834 (FIG. 4) and PA 5539 (FIG. 5), that are resistant to a wide variety of antibiotics. To test this, two MDR P. aeruginosa strains from clinical isolates were used. These isolates were obtained from patients in the Meilahti hospital (Helsinki, Finland). The antibiotics used, and their different mechanisms of actions, are described in Table 2.
# as §1
# [5] = tested on: Pseudomonas aeruginosa; experiment: RNA sequencing / Gene Set Enrichment Analysis with and without P[5]a; type: cell-based; conditions: bacterial RNA with vs without P[5]a
# Source text: Changes in gene expression levels are grouped in specific “gene sets”, which group all genes related to a specific function, for instance biofilm formation.
# Pseudomonas aeruginosa is known to be one of the most problematic pathogenic micro-organisms. Indeed, in a laboratory environment, P. aeruginosa is resistant to nearly all antibiotics within a period of 3 to 4 days. Comparing the sequencing results of the bacterial RNA, with and without a pillarene[5]a (P[5]a, CAS No. 1351445-28-7), allowed the inventors to identify the processes that are affected by comparison with pre-determined gene set terms from the “KEGG pathway analysis” and the “GO Ontology” (see FIG. 1). These gene sets contain all the genes associated with a certain term, for instance “Biofilm”, and the inventors referenced all the genes affected by P[5]a, to these gene sets.
# [6] = tested on: MDR resistant clinical isolates; experiment: Coadministered antibiotics with P[5]a in MDR resistant clinical isolates (Example 8); type: cell-based
# Source text: (§4) The effect of P[5]a on the penetration and efficacy of coadministered antibiotics Amikacin (a), Cefepime (b), Ceftazidime (c) and Meropenem (d) in MDR resistant clinical isolates were studied.
# [7] = tested on: P. aeruginosa PAO1; experiment: Antibiotic resistance buildup, daily MIC over 14 consecutive days; type: cell-based, Pseudomonas aeruginosa
# Source text: Area below the yellow line means that the bacterium is classified as susceptible to the antibiotic. The area in between yellow and red means that the bacterium is intermediate susceptible to the antibiotic. The area above the red line means that the bacterium is classified as resistant to the antibiotic (According to the “Performance Standards for Antimicrobial Susceptibility Testing”, which is maintained by the Clinical and Laboratory Standards Institute).
# Because of this, a combined administration of P[5]a with a variety of antibiotics was tested. MIC values with two different antibiotics, meropenem and cefepime (FIG. 2) were tested, over a period of 14 consecutive days (which more than surpasses the length of normal treatments, 7-10 days), when administered together with and without 2.5 mM P[5]a.
# In this experiment, the minimum inhibitory concentration MIC was analyzed daily for 14 consecutive days, and the highest MIC values (so the highest concentration of antibiotic where the bacteria still grew) was used for the next day. This way, the buildup of resistance over time can be monitored. In FIG. 2, the area below the yellow line means that the bacterium is classified as susceptible to the antibiotic, the area in between yellow and red means that the bacterium is intermediate susceptible to the antibiotic and the area above the red line means that the bacterium is classified as resistant to the antibiotic (According to the “Performance Standards for Antimicrobial Susceptibility Testing”, which is maintained by the Clinical and Laboratory Standards Institute).
# (§5) The effect of P[5]a on encountering resistance development in a pathogenic Gram-negative bacterium, Pserudomonas aeruginosa, strain PA01 was studied over 14-day period. The development of resistance over 14 continuous days by the pathogen PAO1 towards treatment with four clinically relevant antibiotics (meropenem, cefepime, aztreonam and tobramycin) and P[5]a was compared. […] In all antibiotic treatments, reduced susceptibility was observed from day 4 onwards, with complete resistance to all treatments after 12 days.
# The effect of P[5]a on the enhancement of the penetration of coadministered antibiotics having intracellular targets (aztreonam, cefepime, meropenem and tobramycin) was studied over 14-day period in a pathogenic Gram-negative bacterium, Pserudomonas aeruginosa, strain PA01. […] MIC values were categorized in three groups according to the Clinical and Laboratory Standards Institute: susceptible, intermediate susceptible and resistant.
# [8] = tested on: P. aeruginosa PAO1; experiment: Pyocyanin toxin production followed over 14 days; type: cell-based, Pseudomonas aeruginosa; conditions: for pyocyanin toxin formation: throughout 14 days
# Source text: as §5
# [9] = tested on: multidrug resistant P. aeruginosa strain PA 5834; experiment: MIC of antibiotics without and with P[5]a, Luria broth (sensitizing effect test); type: cell-based, Pseudomonas aeruginosa
# Protocol: as §2, §3, §1
# [10] = tested on: Pseudomonas aeruginosa 5832; experiment: Resistance profile of strain (Table 3); type: cell-based; conditions: strain 5832
# Source text: as §4
# [11] = tested on: Pseudomonas aeruginosa 2798 (ATCC 2798); experiment: Resistance profile of strain (Table 3); type: cell-based; conditions: strain 2798 (ATCC 2798)
# Source text: as §4
# [12] = tested on: Pseudomonas aeruginosa 5550; experiment: Resistance profile of strain (Table 3); type: cell-based; conditions: strain 5550
# Source text: as §4
# [13] = tested on: Pseudomonas aeruginosa 5834; experiment: Resistance profile of strain (Table 3); type: cell-based; conditions: strain 5834
# Source text: as §4
# [14] = tested on: Pseudomonas aeruginosa 5542; experiment: Resistance profile of strain (Table 3); type: cell-based; conditions: strain 5542 P. aeruginosa
# Source text: as §4
# [15] = tested on: Pseudomonas aeruginosa 5827; experiment: Resistance profile of strain (Table 3); type: cell-based; conditions: strain 5827
# [16] = tested on: Pseudomonas aeruginosa 5539; experiment: Resistance profile of strain (Table 3); type: cell-based; conditions: strain 5539
SMILES,susceptibility classification (CLSI) ([9]; with P[5]a),susceptibility classification (CLSI) ([9]; without P[5]a),Antibiotic resistance (category) [10],"Antibiotic resistance (value given with the category, MIC) [10]",Antibiotic resistance (category) [11],Antibiotic resistance (category) [12],"Antibiotic resistance (value given with the category, MIC) [12]",Antibiotic resistance (category) [13],"Antibiotic resistance (value given with the category, MIC) [13]",Antibiotic resistance (category) [14],"Antibiotic resistance (value given with the category, MIC) [14]",Antibiotic resistance (category) [15],"Antibiotic resistance (value given with the category, MIC) [15]",Antibiotic resistance (category) [16],"Antibiotic resistance (value given with the category, MIC) [16]",other results
"C[N+](C)(C)CCOc1cc2c(OCC[N+](C)(C)C)cc1Cc1cc(OCC[N+](C)(C)C)c(cc1OCC[N+](C)(C)C)Cc1cc(OCC[N+](C)(C)C)c(cc1OCC[N+](C)(C)C)Cc1cc(OCC[N+](C)(C)C)c(cc1OCC[N+](C)(C)C)Cc1cc(OCC[N+](C)(C)C)c(cc1OCC[N+](C)(C)C)C2.[Br-].[Br-].[Br-].[Br-].[Br-].[Br-].[Br-].[Br-].[Br-].[Br-] [P[5]a, 4,9,14,19,24,26,28,30,32,34-Deca[2-(trimethylammonio)ethoxy]hexacyclo[21.2.2.2^3,6.2^8,11.2^13,16.2^18,21]pentatriaconta1(25),3,5,8,10,13,15,18,20,23,26,28,30,32,34-pentadecaene ⋅ 10bromide]",–,–,–,–,–,–,–,–,–,–,–,–,–,–,–,"interaction with LPS [1]: strong interaction; also recorded: capable of interacting with multiple LPS particles; biofilm formation [2]: significantly reduced; sensitizing effects on amikacin, cefepime, ceftazidime and meropenem [3]: In all cases the sensitizing effects were observed; sensitizing effect on antibiotics [4]: sensitizing effect could be seen with nearly all antibiotics; bacterial antibiotic resistance genes (MexCD-OprJ, MexAB-OprM, mexXY) [5]: significantly down-regulates; gene sets associated with virulence factors (Biofilm, Quorum Sensing, Bioverdine biosynthetic process, Biosynthesis of Secondary Metabolites) ([5]; KEGG and GO gene sets): downregulated; penetration and efficacy of coadministered antibiotics Amikacin, Cefepime, Ceftazidime and Meropenem [6]: enhances; direct antimicrobial properties [7]: lacks direct antimicrobial properties; buildup of resistance to meropenem and cefepime when P[5]a is added ([7]; 2.5 mM P[5]a, 14 consecutive days): significantly reduced; resistance development towards P[5]a (decrease of effectivity of toxin inhibition) ([8]; 14-day period): does not encounter resistance development; also recorded: no observable decrease of effectivity; pyocyanin toxin formation [8]: successfully suppressed; bacterial viability ([8]; throughout 14 days of P[5]a treatment): no decrease; pyocyanin toxin formation ([8]; listed as P5a): very efficient in suppressing"
"CO/N=C(\C(=O)N[C@@H]1C(=O)N2C(C(=O)[O-])=C(C[N+]3(C)CCCC3)CS[C@H]12)c1csc(N)n1 [cefepime, Cefepime]",susceptible,resistant,Intermediate susceptible,8 µg,Intermediate susceptible,Intermediate susceptible,16 µg,resistant,"cefepime 64 ug, ceftazidime 64 ug and meropenem 64 ug",resistant,32 µg,resistant,32 µg,intermediate,8 µg,"MIC ([7]; Pseudomonas aeruginosa, PAO1, 96 h, after four days, highest concentration of antibiotic included): 128 µg/mL; development of resistance by the pathogen to the respective antibiotic ([7]; coadministration of P[5]a with the antibiotic, 14-day period): greatly slowed"
"CC(C)(O/N=C(\C(=O)N[C@@H]1C(=O)N2C(C(=O)[O-])=C(C[n+]3ccccc3)CS[C@H]12)c1csc(N)n1)C(=O)O [ceftazidime, Ceftazidime]",susceptible,resistant,resistant,16 µg,"Aztreonam & Cefepime, Resistant to Ceftazidime, Cirpofloxacin,",resistant,16 µg,resistant,"cefepime 64 ug, ceftazidime 64 ug and meropenem 64 ug",resistant,32 µg,resistant,64 µg,resistant,8 µg,–
